Laboratory results: BindingDB's records for patent US20240116926 (Astrazeneca, 2024)

Target: T1, Transcriptional enhancer factor TEF-3 [217-434] (Homo sapiens, UniProt Q15561)
T1 construct: 217-434
Experiment: TEAD4 FRET Assay

T1 sequence (Q15561 217-434): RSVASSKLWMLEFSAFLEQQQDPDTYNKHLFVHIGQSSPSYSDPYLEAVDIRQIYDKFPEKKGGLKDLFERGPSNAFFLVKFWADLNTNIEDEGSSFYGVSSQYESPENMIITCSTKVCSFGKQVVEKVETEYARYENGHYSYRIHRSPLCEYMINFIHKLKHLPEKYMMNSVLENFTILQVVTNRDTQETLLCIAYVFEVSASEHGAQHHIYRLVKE

IC50: 130 nM
Structure (SMILES): C=CC(=O)N1C[C@H](C#N)[C@H](Nc2nnc(-c3ccc(C(F)(F)F)cc3)c3ccccc23)C1 (single isomer, unassigned) [US20240116926, Example 29]
